According to ChEMBL document CHEMBL4507290 (2021):

What was measured:
[1] = target: Wee1-like protein kinase (Homo sapiens) (UniProt P30291); conditions: Compound concentration 1000.0 nM
[2] = target: Serine/threonine-protein kinase 35 (Homo sapiens) (UniProt Q8TDR2); conditions: Compound concentration 1000.0 nM
[3] = target: Mitogen-activated protein kinase kinase kinase 14 (Homo sapiens) (UniProt Q99558); conditions: Compound concentration 1000.0 nM
[4] = target: Tyrosine-protein kinase Yes (Homo sapiens) (UniProt P07947); conditions: Compound concentration 1000.0 nM
[5] = target: Ribosomal protein S6 kinase alpha-2 (Homo sapiens) (UniProt Q15349); conditions: Compound concentration 1000.0 nM
[6] = system: Phosphatidylinositol 4,5-bisphosphate 3-kinase catalytic subunit alpha isoform (Homo sapiens), P42336 [H1047Y]; conditions: Compound concentration 1000.0 nM
[7] = target: Serine/threonine-protein kinase 38 (Homo sapiens) (UniProt Q15208); conditions: Compound concentration 1000.0 nM
[8] = target: Serine/threonine-protein kinase MARK1 (Homo sapiens) (UniProt Q9P0L2); conditions: Compound concentration 1000.0 nM
[9] = target: Tyrosine-protein kinase Lck (Homo sapiens) (UniProt P06239); conditions: Compound concentration 1000.0 nM
[10] = target: Megakaryocyte-associated tyrosine-protein kinase (Homo sapiens) (UniProt P42679); conditions: Compound concentration 1000.0 nM
[11] = target: Tyrosine-protein kinase ABL2 (Homo sapiens) (UniProt P42684); conditions: Compound concentration 1000.0 nM
[12] = target: Mitogen-activated protein kinase kinase kinase 1 (Homo sapiens) (UniProt Q13233); conditions: Compound concentration 1000.0 nM
[13] = target: Phosphatidylinositol 4,5-bisphosphate 3-kinase catalytic subunit beta isoform (Homo sapiens) (UniProt P42338); conditions: Compound concentration 1000.0 nM
[14] = target: MAP/microtubule affinity-regulating kinase 3 (Homo sapiens) (UniProt P27448); conditions: Compound concentration 1000.0 nM
MAP/microtubule affinity-regulating kinase 3 (Homo sapiens), sequence (P27448 whole entry, looked up): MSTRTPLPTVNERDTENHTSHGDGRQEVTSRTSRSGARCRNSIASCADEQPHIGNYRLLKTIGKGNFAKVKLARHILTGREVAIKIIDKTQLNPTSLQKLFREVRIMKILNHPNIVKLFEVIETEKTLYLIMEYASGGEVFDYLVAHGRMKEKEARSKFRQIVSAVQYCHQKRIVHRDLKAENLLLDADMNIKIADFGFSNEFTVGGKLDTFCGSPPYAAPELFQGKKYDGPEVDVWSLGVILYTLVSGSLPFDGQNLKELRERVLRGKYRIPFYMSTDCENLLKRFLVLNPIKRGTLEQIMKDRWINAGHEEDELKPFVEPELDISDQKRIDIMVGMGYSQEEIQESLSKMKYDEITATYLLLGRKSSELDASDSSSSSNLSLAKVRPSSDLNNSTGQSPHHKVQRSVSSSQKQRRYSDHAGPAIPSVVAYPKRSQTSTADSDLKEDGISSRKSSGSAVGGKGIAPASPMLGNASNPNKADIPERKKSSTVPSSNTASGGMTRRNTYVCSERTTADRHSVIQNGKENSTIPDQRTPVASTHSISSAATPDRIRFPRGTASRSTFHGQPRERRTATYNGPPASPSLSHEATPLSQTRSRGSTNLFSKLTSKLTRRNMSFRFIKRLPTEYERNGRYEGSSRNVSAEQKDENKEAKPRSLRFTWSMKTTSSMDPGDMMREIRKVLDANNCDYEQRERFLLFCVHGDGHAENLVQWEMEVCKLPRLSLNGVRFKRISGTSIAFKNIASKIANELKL

[15] = target: Death-associated protein kinase 2 (Homo sapiens) (UniProt Q9UIK4); conditions: Compound concentration 1000.0 nM
[16] = target: Mitogen-activated protein kinase kinase kinase kinase 5 (Homo sapiens) (UniProt Q9Y4K4); conditions: Compound concentration 1000.0 nM
[17] = target: Casein kinase I isoform epsilon (Homo sapiens) (UniProt P49674); conditions: Compound concentration 1000.0 nM
[18] = target: Cyclin-dependent kinase 9 (Homo sapiens) (UniProt P50750); conditions: Compound concentration 1000.0 nM
[19] = target: 5'-AMP-activated protein kinase catalytic subunit alpha-2 (Homo sapiens) (UniProt P54646); conditions: Compound concentration 1000.0 nM
[20] = target: Tyrosine-protein kinase SYK (Homo sapiens) (UniProt P43405); conditions: Compound concentration 1000.0 nM
[21] = target: Proto-oncogene tyrosine-protein kinase ROS (Homo sapiens) (UniProt P08922); conditions: Compound concentration 1000.0 nM
[22] = target: Beta-2 adrenergic receptor (Homo sapiens) (UniProt P07550); conditions: Compound concentration 10.0 uM
[23] = target: D(1B) dopamine receptor (Homo sapiens) (UniProt P21918); conditions: Compound concentration 10.0 uM
[24] = target: Wee1-like protein kinase 2 (Homo sapiens) (UniProt P0C1S8); conditions: Compound concentration 1000.0 nM
[25] = target: Sodium-dependent noradrenaline transporter (Homo sapiens) (UniProt P23975); conditions: Compound concentration 10.0 uM
Sodium-dependent noradrenaline transporter (Homo sapiens), sequence (P23975 whole entry): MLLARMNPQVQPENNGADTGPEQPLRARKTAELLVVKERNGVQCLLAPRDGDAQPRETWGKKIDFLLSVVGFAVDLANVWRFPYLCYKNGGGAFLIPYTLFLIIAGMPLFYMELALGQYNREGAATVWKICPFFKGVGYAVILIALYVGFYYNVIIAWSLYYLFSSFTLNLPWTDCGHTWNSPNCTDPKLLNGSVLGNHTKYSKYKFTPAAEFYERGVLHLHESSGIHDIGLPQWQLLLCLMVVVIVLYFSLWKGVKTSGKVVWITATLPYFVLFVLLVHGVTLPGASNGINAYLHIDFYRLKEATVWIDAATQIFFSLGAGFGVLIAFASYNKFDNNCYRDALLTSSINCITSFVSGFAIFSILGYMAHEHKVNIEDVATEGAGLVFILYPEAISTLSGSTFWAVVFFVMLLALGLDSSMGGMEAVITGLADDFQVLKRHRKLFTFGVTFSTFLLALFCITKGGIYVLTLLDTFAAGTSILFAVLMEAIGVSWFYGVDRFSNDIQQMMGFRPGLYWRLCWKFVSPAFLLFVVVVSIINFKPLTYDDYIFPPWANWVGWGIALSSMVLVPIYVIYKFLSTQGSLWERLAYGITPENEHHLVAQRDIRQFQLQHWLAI

[26] = target: Calcium/calmodulin-dependent protein kinase type 1B (Homo sapiens) (UniProt Q6P2M8); conditions: Compound concentration 1000.0 nM
[27] = target: Serine/threonine-protein kinase 32A (Homo sapiens) (UniProt Q8WU08); conditions: Compound concentration 1000.0 nM
[28] = system: Mast/stem cell growth factor receptor Kit (Homo sapiens), P10721 [L576P]; conditions: Compound concentration 1000.0 nM
Mast/stem cell growth factor receptor Kit (Homo sapiens), P10721 [L576P], sequence (P10721 whole entry L576P): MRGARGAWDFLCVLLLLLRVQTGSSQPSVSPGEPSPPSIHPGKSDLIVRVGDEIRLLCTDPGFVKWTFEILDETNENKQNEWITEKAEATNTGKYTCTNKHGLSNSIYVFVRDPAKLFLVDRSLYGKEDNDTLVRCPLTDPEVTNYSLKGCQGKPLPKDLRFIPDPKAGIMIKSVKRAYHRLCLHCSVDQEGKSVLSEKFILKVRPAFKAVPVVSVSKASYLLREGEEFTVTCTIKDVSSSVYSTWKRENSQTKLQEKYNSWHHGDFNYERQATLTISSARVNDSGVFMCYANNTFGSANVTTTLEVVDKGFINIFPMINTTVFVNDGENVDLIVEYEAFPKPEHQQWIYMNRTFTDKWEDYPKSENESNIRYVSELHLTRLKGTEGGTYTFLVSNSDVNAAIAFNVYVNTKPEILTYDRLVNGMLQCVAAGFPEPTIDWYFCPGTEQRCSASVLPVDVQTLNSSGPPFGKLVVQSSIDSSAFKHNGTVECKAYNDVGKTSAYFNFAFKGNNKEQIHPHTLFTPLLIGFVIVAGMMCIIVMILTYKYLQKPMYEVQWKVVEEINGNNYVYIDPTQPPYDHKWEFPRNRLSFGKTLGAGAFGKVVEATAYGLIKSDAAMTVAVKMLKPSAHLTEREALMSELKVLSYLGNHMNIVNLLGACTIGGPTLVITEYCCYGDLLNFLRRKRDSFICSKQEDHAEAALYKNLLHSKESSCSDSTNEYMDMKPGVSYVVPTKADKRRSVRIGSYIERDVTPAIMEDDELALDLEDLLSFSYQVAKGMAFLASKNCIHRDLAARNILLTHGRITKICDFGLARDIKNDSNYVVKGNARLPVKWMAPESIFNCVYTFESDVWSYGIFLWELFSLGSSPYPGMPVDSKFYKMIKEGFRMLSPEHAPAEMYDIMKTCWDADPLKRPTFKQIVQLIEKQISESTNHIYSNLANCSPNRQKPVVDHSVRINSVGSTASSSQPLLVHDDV

[29] = target: D(3) dopamine receptor (Homo sapiens) (UniProt P35462); conditions: Compound concentration 10.0 uM
[30] = target: Fibroblast growth factor receptor 3 (Homo sapiens) (UniProt P22607); conditions: Compound concentration 1000.0 nM
[31] = target: Dual specificity mitogen-activated protein kinase kinase 3 (Homo sapiens) (UniProt P46734); conditions: Compound concentration 1000.0 nM
[32] = target: Serine/threonine-protein kinase tousled-like 1 (Homo sapiens) (UniProt Q9UKI8); conditions: Compound concentration 1000.0 nM
[33] = target: Mitogen-activated protein kinase 12 (Homo sapiens) (UniProt P53778); conditions: Compound concentration 1000.0 nM
[34] = target: Serine/threonine-protein kinase haspin (Homo sapiens) (UniProt Q8TF76); conditions: Compound concentration 1000.0 nM
[35] = target: Mitogen-activated protein kinase kinase kinase kinase 1 (Homo sapiens) (UniProt Q92918); conditions: Compound concentration 1000.0 nM
[36] = target: Insulin receptor-related protein (Homo sapiens) (UniProt P14616); conditions: Compound concentration 1000.0 nM
[37] = system: Mast/stem cell growth factor receptor Kit (Homo sapiens), P10721 [A829P]; conditions: Compound concentration 1000.0 nM
Mast/stem cell growth factor receptor Kit (Homo sapiens), P10721 [A829P], sequence (P10721 whole entry A829P): as the sequence (P10721 whole entry L576P) above, with P576L, A829P counted along it

[38] = target: Serine/threonine-protein kinase DCLK2 (Homo sapiens) (UniProt Q8N568); conditions: Compound concentration 1000.0 nM
Serine/threonine-protein kinase DCLK2 (Homo sapiens), sequence (Q8N568 whole entry): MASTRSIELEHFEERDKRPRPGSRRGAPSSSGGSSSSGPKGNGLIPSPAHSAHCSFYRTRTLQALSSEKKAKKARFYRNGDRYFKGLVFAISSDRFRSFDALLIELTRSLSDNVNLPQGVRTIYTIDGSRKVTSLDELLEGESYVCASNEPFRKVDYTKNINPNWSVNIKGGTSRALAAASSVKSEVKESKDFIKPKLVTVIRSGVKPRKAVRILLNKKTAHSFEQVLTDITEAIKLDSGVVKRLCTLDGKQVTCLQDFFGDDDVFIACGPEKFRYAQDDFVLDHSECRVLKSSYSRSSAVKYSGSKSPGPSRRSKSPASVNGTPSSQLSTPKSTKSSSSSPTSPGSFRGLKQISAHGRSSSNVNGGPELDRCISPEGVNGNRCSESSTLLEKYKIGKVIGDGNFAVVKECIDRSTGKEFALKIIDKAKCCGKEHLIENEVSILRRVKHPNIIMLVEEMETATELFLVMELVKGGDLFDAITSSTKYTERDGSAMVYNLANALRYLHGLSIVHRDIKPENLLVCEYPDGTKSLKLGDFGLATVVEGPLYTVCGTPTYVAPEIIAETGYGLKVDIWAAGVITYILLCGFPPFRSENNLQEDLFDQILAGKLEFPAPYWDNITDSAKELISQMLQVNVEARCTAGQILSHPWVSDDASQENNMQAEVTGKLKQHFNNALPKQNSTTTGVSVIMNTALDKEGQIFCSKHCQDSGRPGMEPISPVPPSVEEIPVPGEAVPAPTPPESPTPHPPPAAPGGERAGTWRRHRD

[39] = target: Cyclin-dependent kinase-like 2 (Homo sapiens) (UniProt Q92772); conditions: Compound concentration 1000.0 nM
Cyclin-dependent kinase-like 2 (Homo sapiens), sequence (Q92772 whole entry): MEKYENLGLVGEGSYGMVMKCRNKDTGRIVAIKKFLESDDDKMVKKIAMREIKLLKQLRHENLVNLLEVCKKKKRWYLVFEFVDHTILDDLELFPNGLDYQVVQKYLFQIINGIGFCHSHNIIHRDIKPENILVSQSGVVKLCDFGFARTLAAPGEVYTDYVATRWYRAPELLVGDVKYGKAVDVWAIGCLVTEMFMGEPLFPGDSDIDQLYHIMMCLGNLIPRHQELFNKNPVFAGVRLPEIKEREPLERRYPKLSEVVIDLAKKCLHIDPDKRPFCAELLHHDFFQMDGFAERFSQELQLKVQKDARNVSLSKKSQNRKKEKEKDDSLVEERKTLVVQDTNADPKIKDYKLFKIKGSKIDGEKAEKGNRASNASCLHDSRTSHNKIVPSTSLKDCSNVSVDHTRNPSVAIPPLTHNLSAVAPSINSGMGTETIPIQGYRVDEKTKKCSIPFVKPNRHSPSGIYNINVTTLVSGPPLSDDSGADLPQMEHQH

[40] = target: D(4) dopamine receptor (Homo sapiens) (UniProt P21917); conditions: Compound concentration 10.0 uM
[41] = target: Activin receptor type-1 (Homo sapiens) (UniProt Q04771); conditions: Compound concentration 1000.0 nM
[42] = target: Tyrosine-protein kinase Srms (Homo sapiens) (UniProt Q9H3Y6); conditions: Compound concentration 1000.0 nM
[43] = target: Cyclin-dependent kinase 18 (Homo sapiens) (UniProt Q07002); conditions: Compound concentration 1000.0 nM
[44] = target: Mitogen-activated protein kinase kinase kinase kinase 2 (Homo sapiens) (UniProt Q12851); conditions: Compound concentration 1000.0 nM
[45] = target: Death-associated protein kinase 1 (Homo sapiens) (UniProt P53355); conditions: Compound concentration 1000.0 nM
Death-associated protein kinase 1 (Homo sapiens), sequence (P53355 whole entry, looked up): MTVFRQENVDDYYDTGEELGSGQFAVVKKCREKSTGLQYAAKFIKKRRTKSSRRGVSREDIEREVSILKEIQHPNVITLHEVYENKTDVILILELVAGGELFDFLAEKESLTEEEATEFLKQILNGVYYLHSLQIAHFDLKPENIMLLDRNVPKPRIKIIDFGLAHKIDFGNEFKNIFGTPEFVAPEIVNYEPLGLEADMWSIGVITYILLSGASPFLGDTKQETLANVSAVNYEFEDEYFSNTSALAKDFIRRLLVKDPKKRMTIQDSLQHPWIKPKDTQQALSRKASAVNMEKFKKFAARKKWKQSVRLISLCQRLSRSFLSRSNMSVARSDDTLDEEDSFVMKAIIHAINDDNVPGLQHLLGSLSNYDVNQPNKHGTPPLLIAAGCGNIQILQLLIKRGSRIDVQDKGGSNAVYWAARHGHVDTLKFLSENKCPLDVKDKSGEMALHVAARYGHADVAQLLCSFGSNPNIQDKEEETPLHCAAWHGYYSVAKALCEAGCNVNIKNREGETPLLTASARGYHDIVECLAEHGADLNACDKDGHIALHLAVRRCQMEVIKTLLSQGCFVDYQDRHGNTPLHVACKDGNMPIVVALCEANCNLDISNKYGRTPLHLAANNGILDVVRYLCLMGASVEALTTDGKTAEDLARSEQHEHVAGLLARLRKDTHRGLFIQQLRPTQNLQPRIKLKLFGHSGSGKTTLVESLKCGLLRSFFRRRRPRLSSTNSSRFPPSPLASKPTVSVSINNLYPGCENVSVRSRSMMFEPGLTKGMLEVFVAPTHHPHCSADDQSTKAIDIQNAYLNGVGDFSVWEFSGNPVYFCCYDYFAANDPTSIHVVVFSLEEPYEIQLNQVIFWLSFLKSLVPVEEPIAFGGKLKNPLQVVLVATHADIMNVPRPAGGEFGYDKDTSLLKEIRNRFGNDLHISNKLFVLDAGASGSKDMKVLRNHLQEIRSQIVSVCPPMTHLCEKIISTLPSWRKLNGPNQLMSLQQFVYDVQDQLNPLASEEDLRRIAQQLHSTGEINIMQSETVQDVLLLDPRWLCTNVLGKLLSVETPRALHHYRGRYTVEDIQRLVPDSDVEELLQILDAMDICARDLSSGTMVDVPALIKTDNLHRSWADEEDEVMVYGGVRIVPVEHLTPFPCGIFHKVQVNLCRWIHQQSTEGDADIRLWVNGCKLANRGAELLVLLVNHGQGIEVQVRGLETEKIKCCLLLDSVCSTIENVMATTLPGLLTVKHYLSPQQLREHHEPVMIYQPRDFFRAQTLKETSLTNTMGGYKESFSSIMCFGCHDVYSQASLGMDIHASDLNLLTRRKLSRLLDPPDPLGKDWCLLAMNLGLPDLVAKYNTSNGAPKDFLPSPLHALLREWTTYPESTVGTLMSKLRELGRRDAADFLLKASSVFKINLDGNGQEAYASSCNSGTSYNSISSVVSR

CN([C@@H]1CCc2c(CC(=O)O)c3ccccc3n2C1)S(=O)(=O)c1ccc(F)cc1 [MK-7246]
inactive: residual activity [1] 100% | residual activity [2] 100% | residual activity [3] 100% | residual activity [4] 100% | residual activity [5] 84% | residual activity [6] 97% | residual activity [7] 100% | residual activity [8] 100% | residual activity [9] 100% | residual activity [10] 100% | residual activity [11] 100% | residual activity [12] 62% | residual activity [13] 88% | residual activity [14] 100% | residual activity [15] 100% | residual activity [16] 100% | residual activity [17] 90% | residual activity [18] 100% | residual activity [19] 100% | residual activity [20] 100% | residual activity [21] 100% | inhibition [22] -7.68% | inhibition [23] 1.94% | residual activity [24] 100% | inhibition [25] 23.8% | residual activity [26] 87% | residual activity [27] 100% | residual activity [28] 100% | inhibition [29] -4.25% | residual activity [30] 100% | residual activity [31] 84% | residual activity [32] 100% | residual activity [33] 94% | residual activity [34] 100% | residual activity [35] 100% | residual activity [36] 100% | residual activity [37] 100% | residual activity [38] 100% | residual activity [39] 100% | inhibition [40] 3.14% | residual activity [41] 100% | residual activity [42] 81% | residual activity [43] 100% | residual activity [44] 87% | residual activity [45] 100%

CN([C@@H]1CCc2c(CC(=O)O)c3cc(S(C)(=O)=O)ccc3n2C1)S(=O)(=O)c1ccc(F)cc1
inactive: residual activity [1] 100% | residual activity [2] 100% | residual activity [3] 76% | residual activity [4] 88% | residual activity [5] 99% | residual activity [6] 90% | residual activity [7] 85% | residual activity [8] 89% | residual activity [9] 100% | residual activity [10] 100% | residual activity [11] 100% | residual activity [12] 66% | residual activity [13] 100% | residual activity [14] 100% | residual activity [15] 100% | residual activity [16] 100% | residual activity [17] 96% | residual activity [18] 100% | residual activity [19] 100% | residual activity [20] 100% | residual activity [21] 87% | inhibition [22] 0.0525% | inhibition [23] -6.04% | residual activity [24] 95% | inhibition [25] 22.4% | residual activity [26] 90% | residual activity [27] 100% | residual activity [28] 89% | inhibition [29] -5.72% | residual activity [30] 100% | residual activity [31] 88% | residual activity [32] 100% | residual activity [33] 100% | residual activity [34] 83% | residual activity [35] 100% | residual activity [36] 100% | residual activity [37] 100% | residual activity [38] 100% | residual activity [39] 100% | inhibition [40] 2.8% | residual activity [41] 90% | residual activity [42] 88% | residual activity [43] 100% | residual activity [44] 90% | residual activity [45] 100%
